{"source": "paper PMC12584752", "about": "“Covalent fragment screening to inhibit the E3 ligase activity of bacterial NEL enzymes SspH1 and SspH2” (RSC Chemical Biology, 2025)", "key": {"[1]": {"tested_on": "glutathione", "test": "Glutathione reactivity assay", "type": "physicochemical", "conditions": "6 mM glutathione in PBS, 40 °C; read-out: GSH t1/2 (converted)", "procedure": "10 mM DMSO stocks of compounds 6 and 7 were diluted 20-fold with acetonitrile, and then further 5-fold diluted with 6 mM glutathione in PBS. The reaction was shaken before incubation at 40 °C. The reaction mixture was analysed via UPLC-UV-MS up to eight times across 24 hours, compared to known reference compounds and samples of each compound in distilled water. UPLC conditions: flow rate: 800 μL min^−1; column: acquity UPLC BEH C18 1.7 μm 2.1 × 50 mm; column temperature: 37 °C; mobile phase A: 0.1% formic acid in H2O; mobile phase B: 0.1% formic acid in 100% ACN; run time: 2 minutes; gradient elution: 97% A to 0% A; UV conditions: 210 to 350 nm range; MS conditions: single quad, ESI+, scan range: 50–1000 Da. For each time point, the UV peak area of the parent peak was extracted at a single wavelength (e.g., 254 nm). A pseudo-first-order rate constant (k) for each compound was determined from the slope of a linear regression fit for a plot of the […] peak area of the parent compound versus the time differential for the eight time points; the t1/2 is calculated as follows: t1/2 = 0.693/k."}, "[2]": {"target": "T1, SspH1 (aa 161–700) (Salmonella typhimurium, UniProt D0ZVG2)", "T1 construct": "Recombinant IpaH9.8 (21–545) and SspH1 (161–700) were incubated at 0.5 μM; His-tag (N, cleaved yes); made in house; host or cells: E. coli BL21", "T1 sequence (D0ZVG2 161-700)": "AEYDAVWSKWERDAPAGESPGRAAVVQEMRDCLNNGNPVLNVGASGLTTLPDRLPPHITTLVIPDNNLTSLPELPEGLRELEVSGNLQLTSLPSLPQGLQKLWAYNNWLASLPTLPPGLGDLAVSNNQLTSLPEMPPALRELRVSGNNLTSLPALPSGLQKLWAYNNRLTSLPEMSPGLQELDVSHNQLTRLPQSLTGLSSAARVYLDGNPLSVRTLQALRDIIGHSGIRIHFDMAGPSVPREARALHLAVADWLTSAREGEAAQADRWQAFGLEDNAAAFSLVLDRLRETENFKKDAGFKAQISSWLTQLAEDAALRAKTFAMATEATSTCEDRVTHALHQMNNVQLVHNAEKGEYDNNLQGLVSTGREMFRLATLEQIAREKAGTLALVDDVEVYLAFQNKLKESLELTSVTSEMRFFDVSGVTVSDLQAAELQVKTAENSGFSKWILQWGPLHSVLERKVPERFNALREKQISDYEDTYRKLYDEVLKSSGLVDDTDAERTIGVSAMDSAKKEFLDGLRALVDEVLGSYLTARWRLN", "test": "Full kinetics characterisation of covalent labelling by intact LC-MS", "type": "binding", "conditions": "for ligand efficiencies reflecting the reversible binding interactions: SspH1 and 2, from lower bounds on KI", "procedure": "(§1) Fig. 3 Validation of HTC hit compounds by intact MS. Labelling heatmaps of dilution series (100–6.25 μM) of compounds 4–10 with (A) WT SspH1 and (B) C492K SspH1. Labelling heatmaps of dilution series of (C) compound 6 and (D) compound 7 with bacterial and human ubiquitin binding proteins. Recombinant proteins were incubated at either 1.0 or 0.5 μM with 50 μM fragments for 24 hours at 4 °C, before fragment labelling was analysed by intact LC-MS. Bacterial proteins are shown in bold and human proteins in italic fonts. (E)–(H) Kinetics analyses: time courses (0–12 hours) of compound labelling (100–1.56 μM) of SspH1 and SspH2 (0.5 μM) for (E) SspH1 and compound 7, and (F) SspH2 and compound 6. Measurements were performed in technical triplicates. Labelling percentages were plotted against time in GraphPad Prism v.10, and curves fitted separately for each replicate using one-phase association, with constraints Y0 = 0 and plateau = highest labelling percentage. Graphs for SspH1 and compound 6, and SspH2 and compound 7 are shown in Fig. S4A and B. Rate constants (kobs, as given by Graphpad Prism calculated K values) were plotted against fragment concentration in triplicate for (G) SspH1 and (H) SspH2. Straight lines were fitted with constraint Yintercept = 0. For SspH2 kinetics, 100 μM kobs was outside the linear range.\n(§2) To further understand and compare the labelling of SspH1 and SspH2, we performed a full kinetic analysis of compounds 6 and 7 with both proteins (Fig. 3E–H and Fig. S4A, B). […] Up to a maximum test concentration of 100 μM, the kobsvs. concentration plot was linear for SspH1 so it was not possible to derive individual values of kinact and KI. For SspH2, the relationship was also linear up to 50 μM so it was still only possible to reliably calculate kinact/KI. Nonetheless, we can infer from these plots KI values (SspH1) >100 μM and KI values […] for compounds 6 and 7. From these lower bounds on KI it is clear that the range of ligand efficiencies reflecting the reversible binding interactions with SspH1 and 2 are low (0.19–0.21) and may hint at a challenging binding site for optimising a small molecule inhibitor. Identification of alternative hit series and/or X-ray crystallography would be expected to yield further insight into this putative small molecule binding site. […] At present we don’t understand the molecular basis for the increased reactivity of SspH2 over SspH1, and can only speculate that subtle differences in the active site environment render the catalytic cysteine more reactive.\n(§3) Recombinant SspH1 (aa 161–700) and SspH2 (aa 166–783) were both characterised against compounds 6 and 7. A dilution series in DMSO was prepared for the compound, and 1 μL added to three separate wells in a 384 well plate, representing technical triplicates of each condition. 99 μL of 0.5 μM SspH1 or SspH2 in 25 mM HEPES pH 7.5, 50 mM NaCl buffer was added to the wells and mixed thoroughly (final compound concentrations 100, 50, 25, 12.5, 6.25, 3.125, 1.56 μM). This mixture was then dispensed into 8 wells of 10 μL each in a new 384 well plate, one for each time point. The plate was incubated at 4 °C during intact MS. Intact protein LC-MS was performed as previously described,[40] at approximate time points 0, 1, 2, 4, 6, 8 and 12 hours, and deconvoluted as above. The exact times of each measurement were saved with each reading and used for kinetics calculations. Labelling percentages were plotted against time in GraphPad Prism v.10, and curves fitted separately for each replicate using one-phase association, with constraints Y0 = 0 and plateau = highest labelling percentage. Rate constants (kobs, as given by Graphpad Prism calculated K values) were then plotted against concentration in triplicate, and straight lines fitted with constraint Yintercept = 0. Data are presented as mean ± SD, n = 3. Slope values were converted from μM^−1 hour^−1 to M^−1 s^−1 to give kinact/KI values. […]"}, "[3]": {"target": "T2, SspH2 (aa 166–783) (Salmonella typhimurium, UniProt D0ZPH9)", "T2 construct": "Recombinant SspH1 (aa 161–700) and SspH2 (aa 166–783) were both characterised; His-tag (N, cleaved yes); made in house; host or cells: E. coli BL21", "T2 sequence (D0ZPH9 166-783)": "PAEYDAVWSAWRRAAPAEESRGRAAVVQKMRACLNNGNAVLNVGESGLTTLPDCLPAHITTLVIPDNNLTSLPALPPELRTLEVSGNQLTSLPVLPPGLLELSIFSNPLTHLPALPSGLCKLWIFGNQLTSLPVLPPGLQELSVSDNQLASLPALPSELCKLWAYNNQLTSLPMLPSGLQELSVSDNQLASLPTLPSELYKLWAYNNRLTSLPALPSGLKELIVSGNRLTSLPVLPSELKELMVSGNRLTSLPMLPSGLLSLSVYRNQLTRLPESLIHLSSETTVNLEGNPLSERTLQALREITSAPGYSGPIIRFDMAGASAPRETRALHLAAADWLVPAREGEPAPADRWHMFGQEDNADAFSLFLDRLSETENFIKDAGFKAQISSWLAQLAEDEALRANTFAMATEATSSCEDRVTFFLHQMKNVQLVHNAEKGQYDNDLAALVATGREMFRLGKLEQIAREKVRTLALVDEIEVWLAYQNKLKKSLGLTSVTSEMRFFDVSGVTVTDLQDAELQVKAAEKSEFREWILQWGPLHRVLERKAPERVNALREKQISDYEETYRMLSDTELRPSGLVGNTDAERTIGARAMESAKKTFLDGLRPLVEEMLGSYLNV", "test": "Full kinetics characterisation of covalent labelling by intact LC-MS", "type": "binding", "conditions": "for fold higher kinact/KI with SspH2 than SspH1: SspH2 versus SspH1", "procedure": "as §1, §2, §3"}}, "data": [{"smiles": "Cc1cc(-c2nc3ccccc3n2C2CCN(C(=O)CCl)CC2)cc(C)c1O.Cl", "note": "[compound 6]", "values": [{"measurement": "half-life at 100 µM", "setting": "[1]", "value": 4.9, "unit": "h"}, {"measurement": "Ki", "setting": "[2]", "value": "> 100", "unit": "µM"}, {"measurement": "kinact/KI", "setting": "[2]", "value": 1.2, "unit": "M⁻¹ s⁻¹"}, {"measurement": "ligand efficiencies reflecting the reversible binding interactions", "setting": "[2]", "value": "0.19–0.21"}, {"measurement": "Ki", "setting": "[3]", "value": "> 50", "unit": "µM"}, {"measurement": "kinact/KI", "setting": "[3]", "value": 6.9, "unit": "M⁻¹ s⁻¹"}, {"measurement": "fold higher kinact/KI with SspH2 than SspH1", "setting": "[3]", "value": "4–5 fold"}]}, {"smiles": "Cl.O=C(CCl)N1CCC(n2c(-c3ccc(C(F)(F)F)cc3)nc3ccccc32)CC1", "note": "[compound 7]", "values": [{"measurement": "half-life at 100 µM", "setting": "[1]", "value": 4, "unit": "h"}, {"measurement": "Ki", "setting": "[2]", "value": "> 100", "unit": "µM"}, {"measurement": "kinact/KI", "setting": "[2]", "value": 1.4, "unit": "M⁻¹ s⁻¹"}, {"measurement": "ligand efficiencies reflecting the reversible binding interactions", "setting": "[2]", "value": "0.19–0.21"}, {"measurement": "Ki", "setting": "[3]", "value": "> 50", "unit": "µM"}, {"measurement": "kinact/KI", "setting": "[3]", "value": 6.2, "unit": "M⁻¹ s⁻¹"}, {"measurement": "fold higher kinact/KI with SspH2 than SspH1", "setting": "[3]", "value": "4–5 fold"}]}]}
